Results taken from EP4417190A1, “CYCLIC PEPTIDES WITH ANTI-AGING EFFICACY” (Lipotrue, S.L., priority 2023, dated 2024).

Assays:
ITGB1 [1] = assay: RT-qPCR expression of aging-related gene ITGB1 in HDFa; format: cell-based, human; details: 0.05 mg/mL, 6 h
Method: (§7) Then, cells were lysed, and RNA was extracted (RNeasy mini kit, Qiagen). Purified RNAs were retro-transcribed (High-capacity cDNA reverse transcription kit, Applied Biosystems). RT-qPCR was performed with the panel of TaqMan assay probes (Thermo Fisher Scientific) using StepOne plus Real time PCR instrument. […] The obtained data were analyzed using the ΔΔCt method, which provides the target gene expression values as fold changes in the treated sample compared with an untreated basal sample. Both samples were normalized with the relative expression of the housekeeping gene GAPDH.

TGFBR3 = assay: RT-qPCR expression of aging-related gene TGFBR3 in HEKa; format: cell-based, human; details: 0.01 mg/mL, 24 h
Method: as §7

[2] = MTT assay, toxicity on HEKa cells; format: cell-based; details: human, normalized to non-treated cells, read-out: Cell viability
Method: (§1) Toxicity of cycled peptides A and B was analyzed on human dermal fibroblasts (HDFa) and adult human epidermal keratinocytes HEKa cells by MTT assay. A stock solution of the peptide was prepared in distilled water at 25 mg/mL. This stock solution was further diluted to obtain the final working concentrations (0.001, 0.005, 0.01, 0.05, 0.1 and 0.5 mg/mL) in the corresponding culture medium. Untreated cells were used as negative control samples (Basal).
(§2) Briefly, HEKa and HDFa cells were seeded in 96-well plates at a concentration of 1×10^5 cells/mL in a final volume of 200 µL of medium (20,000 cells/well). HEKa cells were incubated in Dermal Cell Basal Medium supplemented with the Keratinocytes Growth Kit; and HDFa cells were cultured in Medium 106 supplemented with 2% of LSGS. Cells were incubated at 37°C, 5% CO2 and saturated humidity.
(§3) After 24 h of incubation, cells were treated with different concentrations of each peptide (0.001, 0.005, 0.01, 0.05, 0.1 and 0.5 mg/mL) in triplicates, for MTT evaluation. After 24 h of treatment with the peptide, medium was completely removed, and 100 µL of 0.5 mg/mL MTT solution in supplemented medium were added to each well and cells were incubated at 37°C for 3 h. After incubating with MTT, the medium of each well was aspirated and 150 µL of DMSO were added in order to solubilise the formazan crystals formed. The plates were placed on a shaker for 5 minutes for complete solubilisation of the crystals and then the absorbance at 570 nm of each well was determined, using the microplate reader Multiskan FC, which is directly proportional to the number of living cells in culture.
(§4) Absorbance values were normalized using the data obtained for non-treated cells (control), obtaining the % of viability shown in Tables 1 and 2. Each condition was performed in triplicate (n=3) in 3 independent experiments (N=3).
(§5) Concentrations of peptide for which viability is above 80% are considered safe for efficacy testing. On the contrary, concentrations for which viability goes below 80% are considered potentially toxic and are not used for efficacy testing purposes. Table 1: Toxicity of cycled peptides on HDFa cells.

MMP3 and MMP1 = assay: qPCR expression of metalloproteases in HDFa; format: cell-based, human; details: 24 hours, 0.01 mg/mL, compared with linear form (Figure 6C)
Method: (§6) HDFa cells were seeded in duplicate (n=2) in 12-well plates at a concentration of 200.000 cells/well in 106 Medium supplemented with 2% LSGS. Then, cells were incubated at 37 °C in a humidified atmosphere with 5% CO2. Next, cells were treated with cycled peptide B at different non-toxic concentrations for 6 or 24 hours. Untreated cells were used as basal control. Cells were then lysed, and replicates were pooled together for RNA extraction using Qiagen RNeasy Mini kit following manufacturer's instructions. Purified RNAs was then quantified by nanodrop, adjusted in concentration and processed for retrotranscription to cDNA using a commercially available kit (High-Capacity cDNA Reverse Transcription kit - Thermofisher Scientific, USA). Resulting cDNA was used to perform a RTqPCR using Taqman technology, and a panel of probes designed to target different type of collagens and their respective matrix metalloproteinases.
Metalloproteases (MMP) are enzymes responsible of extracellular matrix degradation, also important in skin aging. The expression of MMP genes in HDFa cells was measured by qPCR after 24 hours of treatment with 0.01 mg/mL of peptide B and its linear form.

[3] = tested on: COL3A1, COL5A1, COL6A1, COL7A1, COL1A1 and COL4A1; assay: qPCR expression of collagen genes in HDFa; format: cell-based, human; details: 6 hours, 0.001 mg/mL (COL3A1, COL5A1, COL6A1, COL7A1) or 0.1 mg/mL (COL1A1, COL4A1), compared with linear form (Figure 6A, 6B)
Method: as §6
The expression of collagen genes in HDFa cells was measured by qPCR.

calreticulin (CALR) = assay: Calreticulin immunofluorescence quantification in HEKa; format: cell-based, human; details: 0.005 mg/mL, 24 h
Method: The effect of the cycled peptide on the expression of calreticulin (CALR) in human epidermal keratinocytes from adult (HEKa) was analyzed through fluorescence microscopy evaluation.
HEKa cells were cultured on coverslips in Dermal Cell Basal Medium (DCBM) at a density of 50.000 cell/well and incubated at 37 °C in a humidified atmosphere with 5% CO2. When cell confluence was around 80%, cells were treated with cycled peptide B at 0.005 mg/mL for 24 h. After treatment, samples were washed twice with PBS, fixed with 4% formaldehyde and permeabilized with Triton X-100 0.2%. Next, samples were blocked for 1 hour with PBS/BSA 5%, in order to avoid nonspecific antibody binding. […]
Images were analyzed using Image J software. Shortly, threshold was adjusted to select CALR staining and mean fluorescent was measured. The number of cells was counted using the DAPI staining. […] Finally, all data was normalized as follows to obtain the % of CALR compared to untreated cells (Basal): % vs Basal = (fluorescence per cell in treated samples)/(fluorescence per cell in untreated samples) × 100 [formula]
Statistical data analysis was performed using Student t-test by comparison of % fluorescence from peptide B treated samples vs. untreated samples, (*, p < 0.05; **, p < 0.01 and ***, p < 0.001).

ITGB1 [4] = assay: RT-qPCR expression of aging-related gene ITGB1 in HEKa; format: cell-based, human; details: 0.01 mg/mL, 24 h
Method: as §7

[5] = MTT assay, toxicity on HDFa cells; format: cell-based; details: human, normalized to non-treated cells, read-out: Cell viability
Method: as §1, §2, §3, §4, §5

Question: Which “Fold change vs. Basal” value (ITGB1 [1]) does the source give for `CC(C)C[C@@H]1NC(=O)[C@H](C)NC(=O)[C@H](Cc2c[nH]cn2)NC(=O)[C@H](Cc2c[nH]c3ccccc23)NC(=O)[C@H](Cc2ccccc2)NC(=O)[C@H](CCCNC(=N)N)NC1=O` [Peptide B, cyclo-Phe-Trp- His- Ala-Leu-Arg] here?
Answer: Its value is 1.66.

Question: And the Mean normalized expression (ITGB1 [1]; normalized to GAPDH)?
Answer: The Mean normalized expression was 1.02E+00.

Question: What about the “Fold change vs. Basal” value (TGFBR3) of the same compound?
Answer: Its value is 1.23.

Question: And the Mean normalized expression (TGFBR3; normalized to GAPDH)?
Answer: The Mean normalized expression was 2.54E-02.

Question: What about the viability at 24 h ([2]; 0.001 mg/mL peptide) of the same compound?
Answer: The viability at 24 h was 102%.

Question: And the viability at 24 h ([2]; 0.005 mg/mL peptide)?
Answer: The viability at 24 h was 103%.

Question: What about the viability at 24 h ([2]; 0.01 mg/mL peptide) of the same compound?
Answer: The viability at 24 h was 107%.

Question: And the viability at 24 h ([2]; 0.05 mg/mL peptide)?
Answer: The viability at 24 h was 91.4%.

Question: And the viability at 24 h ([2]; 0.1 mg/mL peptide)?
Answer: The viability at 24 h was 85.8%.

Question: What about the viability at 24 h ([2]; 0.5 mg/mL peptide) of the same compound?
Answer: Its viability at 24 h is 61.8%.

Question: What about the “regulation of MMP3 and MMP1 expression” value (MMP3 and MMP1) of the same compound?
Answer: The value was “reduces the expression of enzymes involved in collagen degradation”.

Question: What about the “expression of collagen genes” value [3] of the same compound?
Answer: Its value is “improves the induction of collagen-related genes”.

Question: What about the “% Mean (CALR fluorescence per cell, % vs Basal)” value (calreticulin (CALR)) of the same compound?
Answer: Its value is 179.45%.

Question: What about the “increased CALR levels when compared with untreated cells” value (calreticulin (CALR)) of the same compound?
Answer: The value was “up to 79%”.

Question: What about the “Fold change vs. Basal” value (ITGB1 [4]) of the same compound?
Answer: The value was 1.65.

Question: What about the Mean normalized expression (ITGB1 [4]; normalized to GAPDH) of the same compound?
Answer: The Mean normalized expression was 7.16E-01.

Question: And the viability at 24 h ([5]; 0.001 mg/mL peptide)?
Answer: Its viability at 24 h is 100%.

Question: And the viability at 24 h ([5]; 0.005 mg/mL peptide)?
Answer: The viability at 24 h was 99.8%.

Question: What about the viability at 24 h ([5]; 0.01 mg/mL peptide) of the same compound?
Answer: Its viability at 24 h is 92.9%.

Question: And the viability at 24 h ([5]; 0.05 mg/mL peptide)?
Answer: Its viability at 24 h is 91.9%.

Question: And the viability at 24 h ([5]; 0.1 mg/mL peptide)?
Answer: The viability at 24 h was 88.2%.

Question: What about the viability at 24 h ([5]; 0.5 mg/mL peptide) of the same compound?
Answer: Its viability at 24 h is 73.7%.
